Experimental data from article PMC9329436, “Optimization of the 4-anilinoquin(az)oline scaffold as epidermal growth factor receptor (EGFR) inhibitors for chordoma utilizing a toxicology profiling assay platform” (Scientific Reports, 2022).
Read-outs that look alike come from different tables or passages of the source.

What was measured:
Format in all cases: biochemical
[1] = biological target: T1, 320 wild-type protein kinases (Homo sapiens, UniProt O00141); conditions: kinase SGK1, singlicate
T1 sequence (O00141 1-431): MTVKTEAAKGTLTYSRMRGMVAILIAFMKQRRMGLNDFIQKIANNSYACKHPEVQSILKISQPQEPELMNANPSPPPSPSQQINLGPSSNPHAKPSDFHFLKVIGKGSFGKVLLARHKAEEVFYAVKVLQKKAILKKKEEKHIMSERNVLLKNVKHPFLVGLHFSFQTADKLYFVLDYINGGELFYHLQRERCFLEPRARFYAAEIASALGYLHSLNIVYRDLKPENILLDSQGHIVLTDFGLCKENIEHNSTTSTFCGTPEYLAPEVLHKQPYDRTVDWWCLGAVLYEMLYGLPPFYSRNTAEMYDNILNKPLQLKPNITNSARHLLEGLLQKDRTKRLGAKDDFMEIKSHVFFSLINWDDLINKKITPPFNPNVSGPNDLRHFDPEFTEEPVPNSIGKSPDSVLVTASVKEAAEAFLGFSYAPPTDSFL
Text: (§1) Table S4. Profiling of two compounds at two concentrations against 320 wild-type protein kinases; singlicate measurement; Residual activities (% of control).

[2] = biological target: T2, 320 wild-type protein kinases (Homo sapiens, UniProt O00418); conditions: EEF2K, singlicate
T2 sequence (O00418 1-725): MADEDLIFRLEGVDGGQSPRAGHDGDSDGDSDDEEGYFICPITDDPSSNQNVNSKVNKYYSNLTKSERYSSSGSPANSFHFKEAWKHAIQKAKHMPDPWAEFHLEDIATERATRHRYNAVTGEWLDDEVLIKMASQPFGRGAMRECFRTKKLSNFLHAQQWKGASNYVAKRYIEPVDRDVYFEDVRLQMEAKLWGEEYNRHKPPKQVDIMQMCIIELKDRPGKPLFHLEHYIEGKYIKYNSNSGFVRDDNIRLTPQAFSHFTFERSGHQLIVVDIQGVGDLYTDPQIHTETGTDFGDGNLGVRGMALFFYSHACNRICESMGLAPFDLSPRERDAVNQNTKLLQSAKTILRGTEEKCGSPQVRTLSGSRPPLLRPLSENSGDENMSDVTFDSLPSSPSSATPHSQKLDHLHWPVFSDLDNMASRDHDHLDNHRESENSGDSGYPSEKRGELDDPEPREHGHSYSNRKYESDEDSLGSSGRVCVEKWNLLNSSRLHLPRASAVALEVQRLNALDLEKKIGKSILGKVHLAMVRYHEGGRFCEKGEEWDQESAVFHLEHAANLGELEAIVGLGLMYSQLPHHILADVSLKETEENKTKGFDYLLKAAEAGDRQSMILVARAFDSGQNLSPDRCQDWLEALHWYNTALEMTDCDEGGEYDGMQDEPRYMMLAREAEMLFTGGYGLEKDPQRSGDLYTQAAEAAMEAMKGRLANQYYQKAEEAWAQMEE
Text: as §1

[3] = biological target: 320 wild-type protein kinases (Homo sapiens, UniProt P06213); conditions: INS-R, singlicate
320 wild-type protein kinases (Homo sapiens, UniProt P06213), sequence (P06213 28-1382): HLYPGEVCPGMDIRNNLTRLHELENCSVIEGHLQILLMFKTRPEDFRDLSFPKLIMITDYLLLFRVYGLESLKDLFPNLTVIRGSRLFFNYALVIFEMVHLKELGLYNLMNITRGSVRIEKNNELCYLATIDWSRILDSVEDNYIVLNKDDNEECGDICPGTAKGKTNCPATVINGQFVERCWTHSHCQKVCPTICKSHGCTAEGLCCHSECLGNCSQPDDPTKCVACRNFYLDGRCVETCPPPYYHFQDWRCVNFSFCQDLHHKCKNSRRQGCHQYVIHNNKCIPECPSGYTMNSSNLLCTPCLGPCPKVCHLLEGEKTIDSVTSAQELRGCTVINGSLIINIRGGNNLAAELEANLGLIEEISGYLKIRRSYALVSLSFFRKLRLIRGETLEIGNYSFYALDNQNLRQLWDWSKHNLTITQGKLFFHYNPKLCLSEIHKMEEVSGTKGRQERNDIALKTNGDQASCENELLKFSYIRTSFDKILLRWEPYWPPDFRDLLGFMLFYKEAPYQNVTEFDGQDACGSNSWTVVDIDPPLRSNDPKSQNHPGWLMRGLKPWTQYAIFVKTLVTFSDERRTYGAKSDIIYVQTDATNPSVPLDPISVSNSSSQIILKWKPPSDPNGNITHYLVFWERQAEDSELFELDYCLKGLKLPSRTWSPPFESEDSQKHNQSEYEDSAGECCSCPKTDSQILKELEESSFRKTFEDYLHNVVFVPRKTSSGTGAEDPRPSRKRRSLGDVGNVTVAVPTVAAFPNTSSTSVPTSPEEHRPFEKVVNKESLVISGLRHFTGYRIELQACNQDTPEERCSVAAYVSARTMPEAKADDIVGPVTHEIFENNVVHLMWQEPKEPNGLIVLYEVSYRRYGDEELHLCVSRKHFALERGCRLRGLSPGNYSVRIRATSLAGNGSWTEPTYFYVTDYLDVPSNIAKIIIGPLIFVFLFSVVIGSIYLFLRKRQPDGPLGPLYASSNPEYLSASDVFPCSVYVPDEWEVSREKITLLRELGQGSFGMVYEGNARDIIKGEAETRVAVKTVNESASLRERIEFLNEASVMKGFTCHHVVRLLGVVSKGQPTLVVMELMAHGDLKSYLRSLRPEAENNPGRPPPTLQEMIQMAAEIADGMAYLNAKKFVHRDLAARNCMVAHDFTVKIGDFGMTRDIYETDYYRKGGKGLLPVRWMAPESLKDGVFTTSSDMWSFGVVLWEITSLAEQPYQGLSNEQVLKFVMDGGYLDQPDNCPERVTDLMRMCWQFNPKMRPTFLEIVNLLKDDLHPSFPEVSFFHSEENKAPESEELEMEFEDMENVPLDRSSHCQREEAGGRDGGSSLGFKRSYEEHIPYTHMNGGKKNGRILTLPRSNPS
Text: as §1

[4] = biological target: 320 wild-type protein kinases (Homo sapiens, UniProt P41279); conditions: COT, singlicate
320 wild-type protein kinases (Homo sapiens, UniProt P41279), sequence (P41279 whole entry): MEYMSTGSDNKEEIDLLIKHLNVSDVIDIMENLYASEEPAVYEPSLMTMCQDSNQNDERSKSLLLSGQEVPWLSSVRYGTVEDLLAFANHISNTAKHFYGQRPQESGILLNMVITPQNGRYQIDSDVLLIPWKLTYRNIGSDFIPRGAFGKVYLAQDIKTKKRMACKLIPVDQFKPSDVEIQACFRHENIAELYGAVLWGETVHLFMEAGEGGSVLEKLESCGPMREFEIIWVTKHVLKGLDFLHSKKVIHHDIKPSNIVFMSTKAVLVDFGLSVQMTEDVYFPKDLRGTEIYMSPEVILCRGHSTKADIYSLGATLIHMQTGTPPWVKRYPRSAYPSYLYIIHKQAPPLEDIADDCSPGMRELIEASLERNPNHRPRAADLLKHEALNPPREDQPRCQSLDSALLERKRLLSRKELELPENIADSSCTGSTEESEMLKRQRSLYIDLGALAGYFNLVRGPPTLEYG
Text: as §1

[5] = biological target: 320 wild-type protein kinases (Homo sapiens, UniProt P49840); conditions: GSK3-alpha, singlicate
320 wild-type protein kinases (Homo sapiens, UniProt P49840), sequence (P49840 whole entry): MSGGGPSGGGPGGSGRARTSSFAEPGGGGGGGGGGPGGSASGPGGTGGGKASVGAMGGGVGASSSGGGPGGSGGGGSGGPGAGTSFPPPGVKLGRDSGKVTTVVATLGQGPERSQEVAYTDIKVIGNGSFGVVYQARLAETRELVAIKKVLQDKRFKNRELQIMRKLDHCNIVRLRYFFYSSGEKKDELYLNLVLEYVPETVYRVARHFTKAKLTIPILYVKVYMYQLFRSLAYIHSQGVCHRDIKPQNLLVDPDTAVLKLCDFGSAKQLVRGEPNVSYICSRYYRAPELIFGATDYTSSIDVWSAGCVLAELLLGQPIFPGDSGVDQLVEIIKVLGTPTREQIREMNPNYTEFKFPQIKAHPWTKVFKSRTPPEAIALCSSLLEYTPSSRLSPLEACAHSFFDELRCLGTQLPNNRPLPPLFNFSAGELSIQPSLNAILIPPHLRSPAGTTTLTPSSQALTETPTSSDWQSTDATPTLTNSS
Text: as §1

[6] = biological target: 320 wild-type protein kinases (Homo sapiens, UniProt Q9NYL2); conditions: kinase ZAK, singlicate
320 wild-type protein kinases (Homo sapiens, UniProt Q9NYL2), sequence (Q9NYL2 whole entry): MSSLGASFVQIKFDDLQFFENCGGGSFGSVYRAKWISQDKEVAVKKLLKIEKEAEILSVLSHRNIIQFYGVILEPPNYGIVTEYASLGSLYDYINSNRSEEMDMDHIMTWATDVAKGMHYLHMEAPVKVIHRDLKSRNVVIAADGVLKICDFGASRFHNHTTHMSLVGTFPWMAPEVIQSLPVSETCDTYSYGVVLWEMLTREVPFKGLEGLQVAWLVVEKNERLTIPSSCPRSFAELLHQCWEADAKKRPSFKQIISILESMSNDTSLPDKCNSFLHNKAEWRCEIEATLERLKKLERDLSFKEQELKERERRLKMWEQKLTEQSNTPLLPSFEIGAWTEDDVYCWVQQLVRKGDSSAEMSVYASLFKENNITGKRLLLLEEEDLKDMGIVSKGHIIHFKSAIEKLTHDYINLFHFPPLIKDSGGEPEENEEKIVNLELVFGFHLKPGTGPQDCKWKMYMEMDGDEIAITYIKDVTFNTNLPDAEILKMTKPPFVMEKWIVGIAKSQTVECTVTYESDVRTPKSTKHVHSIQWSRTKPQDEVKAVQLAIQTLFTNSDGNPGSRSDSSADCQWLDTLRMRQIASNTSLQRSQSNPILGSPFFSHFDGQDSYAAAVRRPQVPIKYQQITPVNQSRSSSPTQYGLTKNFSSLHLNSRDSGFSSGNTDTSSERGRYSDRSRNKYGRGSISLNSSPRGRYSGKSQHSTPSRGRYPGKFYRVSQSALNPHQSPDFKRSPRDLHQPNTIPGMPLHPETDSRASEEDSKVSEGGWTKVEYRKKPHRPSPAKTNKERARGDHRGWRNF
Text: as §1

[7] = biological target: T3, 320 wild-type protein kinases (Homo sapiens, UniProt Q9UBE8); conditions: NLK, singlicate
T3 sequence (Q9UBE8 1-527): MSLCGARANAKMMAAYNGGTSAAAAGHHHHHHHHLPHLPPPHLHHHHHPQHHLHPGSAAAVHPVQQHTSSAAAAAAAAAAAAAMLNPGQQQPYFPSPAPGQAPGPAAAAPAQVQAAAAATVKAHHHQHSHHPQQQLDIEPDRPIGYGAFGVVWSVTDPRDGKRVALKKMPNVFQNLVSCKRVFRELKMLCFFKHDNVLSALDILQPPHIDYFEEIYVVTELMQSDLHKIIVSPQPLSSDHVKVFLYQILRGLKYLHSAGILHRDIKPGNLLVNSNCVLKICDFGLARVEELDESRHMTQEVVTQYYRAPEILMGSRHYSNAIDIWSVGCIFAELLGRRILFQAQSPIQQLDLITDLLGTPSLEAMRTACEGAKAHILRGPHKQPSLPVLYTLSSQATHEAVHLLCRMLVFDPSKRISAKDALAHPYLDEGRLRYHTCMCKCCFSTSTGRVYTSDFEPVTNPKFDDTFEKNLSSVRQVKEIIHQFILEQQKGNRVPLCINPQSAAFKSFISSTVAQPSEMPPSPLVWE
Text: as §1

[8] = biological target: 320 wild-type protein kinases (Homo sapiens, UniProt Q9UQM7); conditions: CAMK2A, singlicate
320 wild-type protein kinases (Homo sapiens, UniProt Q9UQM7), sequence (Q9UQM7 whole entry): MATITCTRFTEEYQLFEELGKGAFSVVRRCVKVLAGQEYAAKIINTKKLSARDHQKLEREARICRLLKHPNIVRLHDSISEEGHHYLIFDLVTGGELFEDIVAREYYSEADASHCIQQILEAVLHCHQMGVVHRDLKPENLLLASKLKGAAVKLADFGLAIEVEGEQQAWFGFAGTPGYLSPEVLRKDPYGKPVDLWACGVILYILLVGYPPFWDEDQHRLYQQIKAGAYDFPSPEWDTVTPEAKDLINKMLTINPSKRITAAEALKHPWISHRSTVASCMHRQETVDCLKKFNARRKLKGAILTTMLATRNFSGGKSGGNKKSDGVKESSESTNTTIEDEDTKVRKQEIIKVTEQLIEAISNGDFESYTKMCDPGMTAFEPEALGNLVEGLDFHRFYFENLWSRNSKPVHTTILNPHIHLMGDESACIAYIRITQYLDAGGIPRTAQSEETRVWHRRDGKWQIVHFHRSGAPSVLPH
Text: as §1

Row | Compound | Residual activity, SGK1 ([1]; assay conc. 1.0E-06 M) | Residual activity, SGK1 ([1]; assay conc. 1.0E-07 M) | Residual activity ([2]; 1.0E-06 M) | Residual activity ([2]; 1.0E-07 M) | Residual activity ([3]; 1.0E-06 M) | Residual activity ([3]; 1.0E-07 M) | Residual activity ([4]; 1.0E-06 M) | Residual activity ([4]; 1.0E-07 M) | Residual activity ([5]; 1.0E-06 M) | Residual activity ([5]; 1.0E-07 M) | Residual activity, ZAK ([6]; assay conc. 1.0E-06 M) | Residual activity, ZAK ([6]; assay conc. 1.0E-07 M) | Residual activity ([7]; 1.0E-06 M) | Residual activity ([7]; 1.0E-07 M) | Residual activity ([8]; 1.0E-06 M) | Residual activity ([8]; 1.0E-07 M)
1 | C#Cc1cc(Nc2ncnc3cc(I)ccc23)ccc1Cl [Compound 41] | 77 % of control | 103 % of control | 87 % of control | 94 % of control | 96 % of control | 105 % of control | 91 % of control | 91 % of control | 143 % of control | 148 % of control | 85 % of control | 98 % of control | 63 % of control | 76 % of control | 93 % of control | 99 % of control
2 | C#Cc1cc(Nc2ncnc3cc(OC)c(OC)cc23)ccc1Cl [Compound 45] | 88 % of control | 99 % of control | 83 % of control | 91 % of control | 82 % of control | 97 % of control | 123 % of control | 98 % of control | 122 % of control | 136 % of control | 80 % of control | 100 % of control | 31 % of control | 83 % of control | 101 % of control | 104 % of control
